This passage reports IC50 results from patent US10052330B2, “Substituted pyrido[3,4-b]pyrazines as Syk inhibitors” (HUTCHISON MEDIPHARMA LIMITED, priority 2011, dated 2018).

One assay deals with RBL-2H3 cells. The experiment in a line: IgE-induced Beta-hexosaminidase secretion in RBL-2H3 cells. It is filed as cell-based. Conditions: Rattus norvegicus, upper bound of each range is 'less than', read-out: IC50, IgE-induced Beta-hexosaminidase secretion.
The target in a further assay is Syk kinase (Homo sapiens, UniProt P43405). The assay can be described thus: Syk kinase enzymatic assay (Kit-Tyr 2 Peptide). The class given is biochemical. The conditions noted are these: 8 concentrations, 1 μM down to 0.0003 μM; upper bound of each range is 'less than'; read-out: IC50: Enzymatic Activity (Syk kinase).
The subject of assay [1] is Bone marrow mast cells (BMMCs). The assay can be described thus: IgE-induced LAT phosphorylation in bone marrow mast cells. It is filed as cell-based, mice. Conditions: Mus musculus, BMMC; BMMCs from female BALB/C mice, sensitized with SPE-7, stimulated with DNP-BSA; upper bound is 'less than'; read-out: IC50, IgE-induced LAT phosphorylation.
Setting [2] is: RBL-2H3, RBL-2H3 cells sensitized with SPE-7, stimulated with DNP-BSA.

Read-outs that look alike come from different tables or passages of the source.

Consider `OC[C@@H]1CCN(c2nc(-c3ccc(N4CCOCC4)cc3)cc3nccnc23)C1` [Compound 159, (R)-(1-(7-(4-morpholinophenyl)pyrido[4,3-b]pyrazin-5-yl)pyrrolidin-3-yl)methanol], for which the IC50 with RBL-2H3 cells (setting [2]) lay within 1 to 100 nM; at Syk kinase it was 100 to 1000 nM; in assay [1], 100 to 1000 nM.

With `c1cnc2c(NC3CC3)nc(-c3ccc(N4CCOCC4)cc3)cc2n1` [Compound 181], the IC50 (in the assay with RBL-2H3 cells (setting [2]); in assay [1]) was 100 to 1000 nM throughout.

Turning to `c1cc(CNc2nc(-c3ccc(N4CCOCC4)cc3)cc3nccnc23)ccn1` [Compound 184], the IC50 (in the assay with RBL-2H3 cells (setting [2]); in assay [1]) was 100 to 1000 nM each time.

In the case of `CNc1ccc(-c2cc3nccnc3c(NCC3CNCCC3(F)F)n2)cc1` (stereo not shown) [Compound 291], the 50% inhibitory concentration (IC50) in the assay with RBL-2H3 cells (setting [2]) and at Syk kinase was 1 to 100 nM each time.

For `O=C(C1CCCC1)N1CCN(c2ccc(-c3cc4nccnc4c(NC[C@@H]4CNCCO4)n3)cc2)CC1` [Compound 414], the IC50 in the assay on RBL-2H3 cells (setting [2]) and at Syk kinase was 1 to 100 nM throughout.

Consider `CCn1cc(-c2cc3nccnc3c(NC[C@H]3CNCCC3(F)F)n2)cn1` [Compound 393, (R)—N-((4,4-difluoropiperidin-3-yl)methyl)-7-(1-ethyl-1H-pyrazol-4-yl)pyrido[4,3-b]pyrazin-5-amine], for which the concentration for half-maximal inhibition (IC50) in the assay on RBL-2H3 cells (setting [2]) was in the range of 1 to 100 nM; at Syk kinase, 100 to 1000 nM.

As for `Cc1cc(-c2cc3nccnc3c(NC[C@@H]3CCCNC3)n2)ccc1N1CCOCC1` [Compound 120], the IC50 is 100 to 1000 nM with RBL-2H3 cells (setting [2]) and 1 to 100 nM on Syk kinase.

Turning to `CC(Nc1nc(-c2ccc(N3CCOCC3)cc2)cc2nccnc12)C1CNCCO1` (stereo not shown) [Compound 276], the IC50 with RBL-2H3 cells (setting [2]) and on Syk kinase was 1 to 100 nM each time.

With `CN(C)c1ccc(-c2cc3nccnc3c(NC[C@@H]3CNCCO3)n2)cc1F` [Compound 141], the IC50 in the assay on RBL-2H3 cells (setting [2]) and on Syk kinase was 1 to 100 nM throughout.

In the case of `CN(C)c1ccc(-c2cc3nccnc3c(NC[C@H]3CNCCO3)n2)cn1` [Compound 106], the IC50 in the assay with RBL-2H3 cells (setting [2]) and at Syk kinase was 100 to 1000 nM each time.

Turning to `O=C(C1CC1)N1CCO[C@H](CNc2nc(-c3ccc(N4CCOCC4)cc3)cc3nccnc23)C1` [Compound 322], the figures for the IC50 with RBL-2H3 cells (setting [2]) and on Syk kinase were 100 to 1000 nM and 1 to 100 nM, respectively.

In the case of `CCS(=O)(=O)N1CCN(c2ccc(-c3cc4nccnc4c(NC[C@@H]4CNCCO4)n3)cn2)CC1` [Compound 441], the IC50 lay in the range of 100 to 1000 nM in the assay with RBL-2H3 cells (setting [2]) and 1 to 100 nM on Syk kinase.

As to `NC(=O)N1CCO[C@H](CNc2nc(-c3ccc(N4CCOCC4)cc3)cc3nccnc23)C1` [Compound 347], the IC50 in the assay on RBL-2H3 cells (setting [2]) and on Syk kinase was 1 to 100 nM in each case.

For `CC(C)(C)c1ccc(-c2cc3nccnc3c(NC[C@@H]3CCCNC3)n2)cc1` [Compound 83], the IC50 lay within 100 to 1000 nM in the assay on RBL-2H3 cells (setting [2]) and 1 to 100 nM on Syk kinase.

Take `CCN1CCC(c2ccc(-c3cc4nccnc4c(NC[C@@H]4CN(C(=O)C(F)F)CCO4)n3)cc2)CC1` [Compound 464]: the IC50 was in the range of 100 to 1000 nM with RBL-2H3 cells (setting [2]) and 1 to 100 nM at Syk kinase.

Regarding `CCC(=O)N1CCN(c2ccc(-c3cc4nccnc4c(NC[C@@H]4CNCCO4)n3)cc2F)CC1` [Compound 429], the IC50 with RBL-2H3 cells (setting [2]) and at Syk kinase was 1 to 100 nM throughout.

On to `CC1CN(c2ccc(-c3cc4nccnc4c(NC[C@@H]4CNCCO4)n3)cc2)CCO1` (stereo partly shown) [Compound 208], for which the half-inhibitory concentration (IC50) in the assay on RBL-2H3 cells (setting [2]) and at Syk kinase was 1 to 100 nM each time.

As for `CC(C)S(=O)(=O)N1CCN(c2ccc(-c3cc4nccnc4c(NC[C@@H]4CNCCO4)n3)cc2)CC1` [Compound 401], the IC50 lay within 100 to 1000 nM with RBL-2H3 cells (setting [2]) and 1 to 100 nM on Syk kinase.

On to `CCS(=O)(=O)N1CCN(c2ccc(-c3cc4nccnc4c(NCC4CNCCC4(F)F)n3)cn2)CC1` (stereo not shown) [Compound 443], for which the IC50 with RBL-2H3 cells (setting [2]) and on Syk kinase was 1 to 100 nM throughout.

With `CN(C)c1ccc(-c2cc3nccnc3c(NCC3CNCCC3(F)F)n2)cc1F` (stereo not shown) [Compound 301], the IC50 with RBL-2H3 cells (setting [2]) and at Syk kinase was 1 to 100 nM each time.

Regarding `NC(=O)NC[C@H]1CCN(c2nc(-c3ccc(N4CCOCC4)cc3)cc3nccnc23)C1` [Compound 151], the IC50 in the assay on RBL-2H3 cells (setting [2]) and on Syk kinase was 100 to 1000 nM throughout.

Turning to `Nc1ccc(-c2cc3nccnc3c(NCC3CCCNC3)n2)cc1` (stereo not shown) [Compound 74], the IC50 with RBL-2H3 cells (setting [2]) lay within 100 to 1000 nM; on Syk kinase, 1 to 100 nM.

`CS(=O)(=O)N1CCC(c2ccc(-c3cc4nccnc4c(NC[C@@H]4CN(S(C)(=O)=O)CCO4)n3)cc2)CC1` [Compound 469]: the IC50 in the assay with RBL-2H3 cells (setting [2]) and at Syk kinase was 1 to 100 nM throughout.

On to `CCN1CCN(c2ccc(-c3cc4nccnc4c(NCC4CNCCO4)n3)cc2)CC1` (stereo not shown) [Compound 215], for which the IC50 in the assay on RBL-2H3 cells (setting [2]) and at Syk kinase was 1 to 100 nM throughout.

Regarding `CN1CCN(c2ccc(-c3cc4nccnc4c(NC[C@@H]4CCCNC4)n3)cc2)CC1` [Compound 122], the half-maximal inhibitory concentration (IC50) in the assay with RBL-2H3 cells (setting [2]) fell in the range of 100 to 1000 nM; on Syk kinase, 1 to 100 nM.

For `O=C(C(F)F)N1CCO[C@H](CNc2nc(-c3ccc(N4CCOCC4)c(F)c3)cc3nccnc23)C1` [Compound 451], the half-inhibitory concentration (IC50) in the assay on RBL-2H3 cells (setting [2]) and at Syk kinase was 1 to 100 nM in each case.

As for `CNc1ccc(-c2cc3nccnc3c(NC[C@@H]3CNCCO3)n2)cc1` [Compound 143], the IC50 in the assay on RBL-2H3 cells (setting [2]) and at Syk kinase was 1 to 100 nM each time.

`O=C(c1ccoc1)N1CCN(c2ccc(-c3cc4nccnc4c(NCC4CNCCO4)n3)cc2)CC1` (stereo not shown) [Compound 421]: the IC50 with RBL-2H3 cells (setting [2]) and at Syk kinase was 1 to 100 nM each time.

For `CC(C)Oc1ccc(-c2cc3nccnc3c(NCC3CCCNC3)n2)cc1F` (stereo not shown) [Compound 52], the IC50 fell in the range of 100 to 1000 nM in the assay on RBL-2H3 cells (setting [2]) and 1 to 100 nM on Syk kinase.

Regarding `FC1(F)CCNC[C@H]1CNc1nc(-c2cnn(C3CCOCC3)c2)cc2nccnc12` [Compound 398, (S)—N-((4,4-difluoropiperidin-3-yl)methyl)-7-(1-(tetrahydro-2H-pyran-4-yl)-1H-pyrazol-4-yl)pyrido[4,3-b]pyrazin-5-amine], the IC50 with RBL-2H3 cells (setting [2]) and on Syk kinase was 1 to 100 nM in each case.

In the case of `c1cnc2c(NC[C@@H]3CCCNC3)nc(-c3ccc(N4CCOCC4)nc3)cc2n1` [Compound 89], the half-inhibitory concentration (IC50) with RBL-2H3 cells (setting [2]) and on Syk kinase was 100 to 1000 nM each time.

Take `COc1ccc(-c2cc3nccnc3c(NC[C@H]3CCCNC3)n2)c(F)c1` [Compound 68]: the IC50 with RBL-2H3 cells (setting [2]) and at Syk kinase was 100 to 1000 nM each time.

Turning to `CC(=O)OCCCOc1ccc(-c2cc3nccnc3c(NC[C@@H]3CNCCO3)n2)cc1` [Compound 477, (S)-3-(4-(5-(morpholin-2-ylmethylamino)pyrido[4,3-b]pyrazin-7-yl)phenoxy)propyl acetate], the IC50 in the assay on RBL-2H3 cells (setting [2]) is 1 to 100 nM; at Syk kinase it was 100 to 1000 nM.

In the case of `CC(=O)N1CCN(c2ccc(-c3cc4nccnc4c(NC[C@H]4CN(C(=O)C(F)F)CCO4)n3)cc2)CC1` [Compound 466, (S)-1-(2-((7-(4-phenylpiperazin-1-yl)ethanone[4,3-b]pyrazin-5-ylamino)methyl)morpholino)-2,2-difluoroethanone], the 50% inhibitory concentration (IC50) with RBL-2H3 cells (RBL-2H3 cells sensitized with SPE-7, stimulated with DNP-BSA) was in the range of 1 to 100 nM; at Syk kinase it was 1 to 100 nM.

Consider `C[C@H](O)C(=O)N1CCN(c2ccc(-c3cc4nccnc4c(NC[C@@H]4CNCCO4)n3)cc2)CC1` [Compound 408], for which the figures for the IC50 in the assay on RBL-2H3 cells (setting [2]) and at Syk kinase were 100 to 1000 nM and 1 to 100 nM, respectively.

Consider `CS(=O)(=O)N1CCN(c2ccc(-c3cc4nccnc4c(NC[C@@H]4CN(C(=O)C(F)F)CCO4)n3)cc2)CC1` [Compound 467], for which the IC50 with RBL-2H3 cells (setting [2]) and on Syk kinase was 1 to 100 nM each time.
